In BindingDB's records for doi:10.1016/j.bmc.2007.04.026 (University of Ferrara, 2007):
Where a SMILES comes first, the peptide text is derived from it. [ ]: non-standard residue; d: D form. ξ: configuration not given here. Phe(4-F) = N[C@@H](Cc1ccc(F)cc1)C(=O)O; Aib = CC(C)(N)C(=O)O; ξDap = NCC(N)C(=O)O

What was measured:
[1] = target: Nociceptin receptor (Mus musculus, UniProt P35377); test: Antagonist activity at NOP receptor in Swiss mouse vas deferens […]
[2] = target: Nociceptin receptor (Cavia porcellus, UniProt P47748); test: Antagonist activity at NOP receptor in Albino guinea pig ileum assessed as effect on electrically stimulated contractions
[3] = target: Nociceptin receptor (Rattus norvegicus, UniProt P35370); test: Antagonist activity at NOP receptor in Sprague-Dawley rat vas deferens assessed as effect on electrically stimulated contractions
Nociceptin receptor (Rattus norvegicus, UniProt P35370), sequence (P35370 whole entry): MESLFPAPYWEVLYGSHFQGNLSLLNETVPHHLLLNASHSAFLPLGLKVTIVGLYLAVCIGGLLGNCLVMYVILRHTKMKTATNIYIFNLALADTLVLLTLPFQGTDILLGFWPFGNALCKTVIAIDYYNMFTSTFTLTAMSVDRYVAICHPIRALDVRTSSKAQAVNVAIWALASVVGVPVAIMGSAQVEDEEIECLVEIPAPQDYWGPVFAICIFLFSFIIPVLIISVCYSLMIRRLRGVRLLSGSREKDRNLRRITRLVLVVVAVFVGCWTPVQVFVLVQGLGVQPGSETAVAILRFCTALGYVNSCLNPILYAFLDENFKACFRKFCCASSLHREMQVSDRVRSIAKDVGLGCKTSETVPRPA

Nociceptin receptor (Mus musculus, UniProt P35377), sequence (P35377 whole entry): as the sequence (P35370 whole entry) above, with Y9F, S335A counted along it
Nociceptin receptor (Cavia porcellus, UniProt P47748), sequence (P47748 whole entry): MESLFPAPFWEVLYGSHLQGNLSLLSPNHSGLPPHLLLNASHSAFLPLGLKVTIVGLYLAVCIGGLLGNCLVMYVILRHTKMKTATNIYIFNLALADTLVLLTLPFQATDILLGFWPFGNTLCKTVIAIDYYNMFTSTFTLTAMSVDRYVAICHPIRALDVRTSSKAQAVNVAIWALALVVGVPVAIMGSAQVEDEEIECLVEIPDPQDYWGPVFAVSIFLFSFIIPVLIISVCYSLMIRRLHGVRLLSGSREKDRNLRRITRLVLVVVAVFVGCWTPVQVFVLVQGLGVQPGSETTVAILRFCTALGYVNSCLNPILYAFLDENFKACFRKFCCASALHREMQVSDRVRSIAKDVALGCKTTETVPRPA

SMILES: C[C@H](NC(=O)[C@H](CO)NC(=O)[C@H](CCCCN)NC(=O)[C@H](CCCN=C(N)N)NC(=O)C(C)(C)NC(=O)CNC(=O)[C@@H](NC(=O)[C@H](Cc1ccc(F)cc1)NC(=O)CNC(=O)C(CN)NC(=O)[C@@H](N)Cc1ccccc1)[C@@H](C)O)C(=O)N[C@@H](CCCN=C(N)N)C(=O)N[C@@H](CCCCN)C(=O)N[C@@H](CCCN=C(N)N)C(=O)N[C@@H](CCCCN)C(=O)N[C@@H](CC(N)=O)C(=O)N[C@@H](CCC(N)=O)C(N)=O (stereo partly drawn) (H-F[ξDap]G[Phe(4-F)]TG[Aib]RKSARKRKNQ-NH2)
- Kd [1]: 794 pM
- Kd [2]: 316 pM
- Kd [3]: 603 pM
